According to article PMC10570959 (The Journal of Biological Chemistry, 2023):

Columns and labels:
[1] = radiolabeled compound injected into rabbits; result in words; cited from earlier work
[2] = test system: OcINMT; details: cited from earlier work
[3] = test system: RmNMT; format: biochemical, Rhinella marina; details: 30 °C, 10 min
[4] = test system: HsINMT; details: read-out: Km (HsINMT); cited from earlier work
[5] = test system: MAO-A; details: rat liver mitochondria; result in words; cited from earlier work
[6] = test system: RmNMT; format: biochemical, Rhinella marina; details: for Higher conversion of substrate by RmNMT compared with OcINMT: from Table 1 activities
[7] = In vitro metabolic stability in human liver microsomes; format: in vitro ADME; details: 5 μM compound, 400 μg/ml HLM, 37 °C, timepoints 0, 30, 60 min; result in words
[8] = test system: mice; details: result in words; cited from earlier work
[9] = molecular target: 5-HT2A receptor (Homo sapiens, UniProt P28223); details: read-out: 5-HT2A Ki; cited from earlier work
[10] = molecular target: T1, 5-HT1A receptor (Homo sapiens, UniProt P08908); assay: Radioligand competition assay; format: binding; details: 0.5 nM [3H]8-hydroxy-DPAT; mean ± SD of three independent replicates
T1 sequence (P08908 1-422): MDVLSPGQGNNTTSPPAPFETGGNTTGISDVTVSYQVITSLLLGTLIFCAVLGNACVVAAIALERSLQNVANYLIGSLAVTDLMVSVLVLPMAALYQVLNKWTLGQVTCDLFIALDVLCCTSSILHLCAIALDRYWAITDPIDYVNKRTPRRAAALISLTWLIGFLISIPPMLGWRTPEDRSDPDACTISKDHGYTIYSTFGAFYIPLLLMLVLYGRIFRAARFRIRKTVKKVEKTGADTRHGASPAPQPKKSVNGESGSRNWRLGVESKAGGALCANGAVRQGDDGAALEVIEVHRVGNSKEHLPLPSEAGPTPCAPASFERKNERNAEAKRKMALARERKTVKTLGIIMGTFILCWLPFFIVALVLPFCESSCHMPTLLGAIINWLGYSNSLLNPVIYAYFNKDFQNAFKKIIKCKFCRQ

[11] = standard in vitro assay, 1 h, 37 °C, mean ± SD, triplicate

Sequence of 5-HT2A receptor (P28223 whole entry): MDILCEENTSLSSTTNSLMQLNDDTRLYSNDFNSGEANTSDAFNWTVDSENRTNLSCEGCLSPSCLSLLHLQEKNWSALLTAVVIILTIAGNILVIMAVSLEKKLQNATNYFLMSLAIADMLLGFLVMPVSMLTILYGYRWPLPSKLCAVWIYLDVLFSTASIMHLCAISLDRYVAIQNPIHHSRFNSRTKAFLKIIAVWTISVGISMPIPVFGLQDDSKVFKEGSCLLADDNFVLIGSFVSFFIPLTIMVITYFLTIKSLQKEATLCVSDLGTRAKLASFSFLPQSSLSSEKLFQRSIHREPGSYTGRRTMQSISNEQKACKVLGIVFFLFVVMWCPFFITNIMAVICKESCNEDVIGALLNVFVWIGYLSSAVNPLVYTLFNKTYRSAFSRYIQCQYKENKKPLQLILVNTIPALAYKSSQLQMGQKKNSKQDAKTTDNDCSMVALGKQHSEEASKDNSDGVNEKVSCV

NCCc1c[nH]c2ccccc12 [Tryptamine]
Persistence in brain tissue [1]: disappeared within minutes
Km ([2]; read-out: Km (OcINMT)): 270 µM
kcat (RmNMT) [3]: 0.00052 s⁻¹
Km [4]: 2920 µM
Activity as MAO-A substrate [5]: substrates of MAO-A
Higher conversion of substrate by RmNMT compared with OcINMT [6]: 18 fold
RmNMT enzyme activity, product N-Methyltryptamine [6, 11]: 3.51 ± 0.079

CN(C)CCc1c[nH]c2ccc(O)cc12 [Bufotenin, 5-hydroxy-DMT]
Metabolic stability during exposure to human liver microsome [7]: degraded faster than psilocin

NCCc1c[nH]c2cccc(O)c12 [4-Hydroxytryptamine]
Head-twitch response [8]: does not induce head-twitch response

NCCc1c[nH]c2ccc(O)cc12 [5-Hydroxytryptamine (serotonin), 5-Hydroxytryptamine]
RmNMT enzyme activity, product Bufotenin [6]: 4.65 ± 0.112

COc1ccc2c(CCN(C)C)c[nH]c2c1 [6-methoxy-DMT]
Ki [9]: 7300 nM

CN(C)CCc1c[nH]c2ccccc12 [DMT, N,N-dimethyltryptamine]
Ki [9]: 1200 nM
Inhibition of OcINMT by its product ([2]; result in words): noncompetitively inhibited
Activity as MAO-A substrate [5]: could not be detected

CN(C)CCc1c[nH]c2cc(F)cc(O)c12 [6-fluoro-psilocin]
Ki [9]: 13 nM

CNCCc1c[nH]c2ccccc12 [N-Methyltryptamine]
Activity as MAO-A substrate [5]: substrates of MAO-A
Higher conversion of substrate by RmNMT compared with OcINMT [6]: 27 fold
RmNMT enzyme activity, product DMT [6, 11]: 10.44 ± 0.46

Cc1[nH]c2ccccc2c1CCN [2-Methyltryptamine]
5-HT1A Ki [10]: micromolar levels
Metabolic stability during exposure to human liver microsome [7]: showed greater stability
